Assay results published in patent US4250094A, “1-(Aminoalkyl) substituted-6-phenyl-4H-s-triazolo[4,3-a][1,4]benzodiazepines” (priority 1979, dated 1981).
Entries after “also recorded” stand apart in the source; their conditions may differ. Structures can show the parent of a compound that is named as a salt.

Legend:
[1] = tested on: oxotremorine; details: in words, cited from earlier work; for block of oxotremorine hypothermic response: mice
[2] = Lethality of yohimbine hydrochloride alone; type: in vivo; details: mice, 30 mg./kg., in words
Protocol: After two hours, the LD50 are determined.

[3] = tested on: oxotremorine; assay: Hypothermic tests with oxotremorine: body temperature change; type: in vivo, mice; details: for Body Temperature °F. Change From Vehicle Control After 15 Minutes / Body Temperature °F. Change From Vehicle Control After 30 Minutes / Body Temperature °F. Change From Vehicle Control After 60 Minutes / Body Temperature °F. Change From Vehicle Control After 90 Minutes: ip, 0.5 h; for antagonism of oxotremorine temperature decrease: oxotremorine 0.6 mg./kg., in words
Text: Hypothermic tests with oxotermorine: [1-(4-pyrrolidino-2-butynyl)-2-pyrrolidinone].

[4] = tested on: oxotremorine; type: in vivo, mice; details: Table VII
Protocol: The present compounds were tested as follows. […] The lowering of the body temperature was measured rectally with an electronic thermometer, before and 30 minutes after drug administration. After the drug administration the mice were kept at 19° C. in cages. A four degree difference between the control mice (oxotremorine alone) and the treated mice (oxotremorine and test compound) was used to indicate the antagonistic action of the test compound.

[5] = tested on: yohimbine; type: in vivo, mice; details: Table VII
Protocol: Ten male CF mice, 18-22 g., were injected with the anti-depressant and 30 minutes later with 30 mg. of yohimbine hydrochloride (YCl) in saline solution. After two hours, the LD50 are determined.

[6] = tested on: nicotine; details: control (untreated) mice, nicotine salicylate 2 mg./kg.
[7] = tested on: apomorphine; details: Table VII
[8] = tested on: strychnine; type: in vivo; details: 3 mg./kg. intraperitoneally
Protocol: The test consists in orally administering into groups of 6 mice the test compound, and 30 minutes later 3 mg./kg. strychnine sulfate intraperitoneally. The survivors after 4 hours reflect the activity of the compound as a muscle relaxant and antispasmodic.

CN1[C@@H]2CC[C@H]1C[C@@H](OC(=O)C(CO)c1ccccc1)C2 (stereo partly shown) [Atropine]
block of oxotremorine hypothermic response [1]: blocked

COc1cc2c(cc1OC)C1CC(=O)C(CC(C)C)CN1CC2 (stereo not shown) [tetrabenazine]
hypothermic response in mice [1]: produces hypothermic responses in mice

COC(=O)[C@@H]1[C@H]2C[C@H]3c4[nH]c5ccccc5c4CCN3C[C@@H]2CC[C@@H]1O [yohimbine hydrochloride]
lethality of yohimbine hydrochloride alone [2]: non-lethal
lethality of yohimbine hydrochloride alone ([2]; listed as YCl): no death; also recorded: No mice or only one mouse is killed

CN(C)CCC=C1c2ccccc2COc2ccccc21 [Doxepine]
Body Temperature °F. Change From Vehicle Control After 15 Minutes ([3]; 25 mg/kg): -2.3 °F.
Body Temperature °F. Change From Vehicle Control After 30 Minutes ([3]; 25 mg/kg): - 7.1 °F.
Body Temperature °F. Change From Vehicle Control After 60 Minutes ([3]; 25 mg/kg): -11.0 °F.
Body Temperature °F. Change From Vehicle Control After 90 Minutes ([3]; 25 mg/kg): -12.3 °F.
antagonism of oxotremorine temperature decrease ([3]; mice): antagonized

O=C1CCCN1CC#CCN1CCCC1 [Oxotremorine, 1-(4-pyrrolidino-2-butynyl)-2-pyrrolidinone]
decrease of body temperature of a mouse ([3]; 0.6 mg./kg., mouse kept at room temperature): about 13 ° F.
time of peak hypothermia after administration ([3]; mice): 60 min
hypothermic response in mice [1]: produces hypothermic responses in mice

CNCCCN1c2ccccc2CCc2ccccc21 [Desipramine]
Body Temperature °F. Change From Vehicle Control After 15 Minutes ([3]; 25 mg/kg): -3.5 °F.
Body Temperature °F. Change From Vehicle Control After 30 Minutes ([3]; 25 mg/kg): - 3.5 °F.
Body Temperature °F. Change From Vehicle Control After 60 Minutes ([3]; 25 mg/kg): - 4.1 °F.
Body Temperature °F. Change From Vehicle Control After 90 Minutes ([3]; 25 mg/kg): - 3.6 °F.
antagonism of oxotremorine temperature decrease ([3]; mice): antagonized

NCc1nnc2n1-c1ccc(Cl)cc1C(c1ccccc1)=NC2 [1-(Aminomethyl)-8-chloro-6-phenyl-4H-s-triazolo[4,3-a][1,4]benzodiazepine]
Oxo (oxotremorine test) [4]: 29.7
YO (Yohimbine test) [5]: 35.4

CN(C)CCCN1c2ccccc2CCc2ccccc21 [Imipramine]
Body Temperature °F. Change From Vehicle Control After 15 Minutes ([3]; 25 mg/kg): -0.4 °F.
Body Temperature °F. Change From Vehicle Control After 30 Minutes ([3]; 25 mg/kg): - 3.3 °F.
Body Temperature °F. Change From Vehicle Control After 60 Minutes ([3]; 25 mg/kg): - 5.6 °F.
Body Temperature °F. Change From Vehicle Control After 90 Minutes ([3]; 25 mg/kg): - 6.4 °F.
antagonism of oxotremorine temperature decrease ([3]; mice): antagonized
block of oxotremorine hypothermic response [1]: blocked

CN1CCC[C@H]1c1cccnc1 [nicotine salicylate]
effect of nicotine salicylate in control mice [6]: running convulsions followed by (2) tonic extensor fits; followed by (3) death

CN(C)Cc1nnc2n1-c1ccc(Cl)cc1C(c1ccccc1Cl)=NC2 [8-Chloro-1-[(dimethylamino)methyl]-6-(o-chlorophenyl)-4H-s-triazolo[4,3-a][1,4]benzodiazepine]
Ap (Apomorphine test) [7]: 17.8

CN1CCc2cccc3c2[C@H]1Cc1ccc(O)c(O)c1-3 [apomorphine]
hypothermic response in mice [1]: produces hypothermic responses in mice

CN(C)CCC=C1c2ccccc2CCc2ccccc21 [Amitriptyline]
Body Temperature °F. Change From Vehicle Control After 15 Minutes ([3]; 25 mg/kg): +0.7 °F.
Body Temperature °F. Change From Vehicle Control After 30 Minutes ([3]; 25 mg/kg): - 2.4 °F.
Body Temperature °F. Change From Vehicle Control After 60 Minutes ([3]; 25 mg/kg): - 5.4 °F.
Body Temperature °F. Change From Vehicle Control After 90 Minutes ([3]; 25 mg/kg): - 6.8 °F.

O=C1C[C@@H]2OCC=C3CN4CC[C@]56c7ccccc7N1[C@H]5[C@H]2[C@H]3C[C@H]46 [strychnine sulfate]
lethality of strychnine sulfate in control mice [8]: routinely fatal to all the control mice

CC(N)Cc1ccccc1 (stereo not shown) [Amphetamine]
Body Temperature °F. Change From Vehicle Control After 15 Minutes ([3]; 5 mg/kg): -1.5 °F.
Body Temperature °F. Change From Vehicle Control After 30 Minutes ([3]; 5 mg/kg): - 4.3 °F.
Body Temperature °F. Change From Vehicle Control After 60 Minutes ([3]; 5 mg/kg): - 4.4 °F.
Body Temperature °F. Change From Vehicle Control After 90 Minutes ([3]; 5 mg/kg): - 2.2 °F.
